Results: the NIST ThermoML archive (doi:10.1021/acs.jced.8b00554)

Test: xn = mol fraction of the nth substance listed
Settings: Liquid, Vibrating tube method

CCCCCCCC [octane] + CCCO
mass density [kg/m3]
Settings	353.15 K	363.15 K
100 kPa, x2 = 0.1631	–	643.75
100 kPa, x2 = 0.2111	–	645.23
100 kPa, x2 = 0.3158	–	649.43
100 kPa, x2 = 0.4411	–	656.74
100 kPa, x2 = 0.7301	–	685.03
100 kPa, x2 = 0.8823	–	711.1
1000 kPa, x2 = 0.2111	–	646.4
1010 kPa, x2 = 0.1631	–	644.92
1010 kPa, x2 = 0.3158	–	650.63
1020 kPa, x2 = 0.4411	–	658.07
1020 kPa, x2 = 0.7301	–	686.21
1020 kPa, x2 = 0.8823	–	712.01
2000 kPa, x2 = 0.3158	–	652.01
2000 kPa, x2 = 0.4411	–	659.42
2000 kPa, x2 = 0.7301	–	687.5
2000 kPa, x2 = 0.8823	–	713.23
2010 kPa, x2 = 0.1631	–	646.32
2010 kPa, x2 = 0.2111	–	647.77
3000 kPa, x2 = 0.1631	–	647.65
3010 kPa, x2 = 0.3158	–	653.38
3010 kPa, x2 = 0.4411	–	660.78
3010 kPa, x2 = 0.8823	–	714.49
3020 kPa, x2 = 0.2111	–	649.11
3020 kPa, x2 = 0.7301	–	688.81
4010 kPa, x2 = 0.2111	–	650.5
4010 kPa, x2 = 0.3158	–	654.7
4010 kPa, x2 = 0.4411	–	662.14
4010 kPa, x2 = 0.8823	–	715.75
4020 kPa, x2 = 0.1631	–	649
4020 kPa, x2 = 0.7301	–	690.17
5000 kPa, x2 = 0.2111	–	651.8
5000 kPa, x2 = 0.3158	–	656.03
5000 kPa, x2 = 0.7301	–	691.49
5010 kPa, x2 = 0.1631	–	650.29
5010 kPa, x2 = 0.8823	–	716.99
5020 kPa, x2 = 0.4411	–	663.46
6000 kPa, x2 = 0.8823	–	718.21
6010 kPa, x2 = 0.1631	–	651.6
6010 kPa, x2 = 0.2111	–	653.06
6020 kPa, x2 = 0.3158	–	657.34
6020 kPa, x2 = 0.4411	–	664.8
6020 kPa, x2 = 0.7301	–	692.76
7000 kPa, x2 = 0.1631	–	652.93
7000 kPa, x2 = 0.3158	–	658.67
7000 kPa, x2 = 0.4411	–	666.13
7010 kPa, x2 = 0.2111	–	654.35
7020 kPa, x2 = 0.7301	–	694.08
7020 kPa, x2 = 0.8823	–	719.45
8000 kPa, x2 = 0.3158	–	660
8010 kPa, x2 = 0.1631	–	654.22
8010 kPa, x2 = 0.2111	–	655.68
8010 kPa, x2 = 0.8823	–	720.66
8020 kPa, x2 = 0.4411	–	667.45
8020 kPa, x2 = 0.7301	–	695.38
9000 kPa, x2 = 0.1631	–	655.49
9000 kPa, x2 = 0.8823	–	721.91
9010 kPa, x2 = 0.3158	–	661.3
9010 kPa, x2 = 0.4411	–	668.75
9010 kPa, x2 = 0.7301	–	696.66
9020 kPa, x2 = 0.2111	–	656.97
10000 kPa, x2 = 0.1631	–	656.77
10000 kPa, x2 = 0.4411	–	670.08
10010 kPa, x2 = 0.2111	–	658.25
10010 kPa, x2 = 0.3158	674.1	–
10010 kPa, x2 = 0.4411	682.1	–
10010 kPa, x2 = 0.7301	710.33	–
10010 kPa, x2 = 0.8823	–	723.12
10020 kPa, x2 = 0.3158	–	662.62
10020 kPa, x2 = 0.7301	–	697.93
11000 kPa, x2 = 0.1631	668.3	658.05
11000 kPa, x2 = 0.4411	–	671.35
11000 kPa, x2 = 0.7301	711.46	–
11000 kPa, x2 = 0.8823	735.72	–
11010 kPa, x2 = 0.2111	–	659.52
11010 kPa, x2 = 0.3158	–	663.89
11010 kPa, x2 = 0.4411	683.25	–
11010 kPa, x2 = 0.7301	–	699.17
11020 kPa, x2 = 0.2111	670.17	–
11020 kPa, x2 = 0.3158	675.25	–
11020 kPa, x2 = 0.8823	–	724.31
12000 kPa, x2 = 0.1631	–	659.27
12000 kPa, x2 = 0.2111	671.35	–
12000 kPa, x2 = 0.3158	676.4	–
12000 kPa, x2 = 0.4411	684.41	–
12000 kPa, x2 = 0.7301	712.61	–
12000 kPa, x2 = 0.8823	–	725.46
12010 kPa, x2 = 0.1631	669.46	–
12010 kPa, x2 = 0.2111	–	660.8
12010 kPa, x2 = 0.3158	–	665.14
12020 kPa, x2 = 0.4411	–	672.6
12020 kPa, x2 = 0.7301	–	700.4
12020 kPa, x2 = 0.8823	736.81	–
13000 kPa, x2 = 0.3158	677.55	666.41
13000 kPa, x2 = 0.4411	–	673.84
13000 kPa, x2 = 0.8823	–	726.58
13010 kPa, x2 = 0.1631	670.56	660.51
13010 kPa, x2 = 0.2111	–	662.01
13010 kPa, x2 = 0.7301	–	701.64
13010 kPa, x2 = 0.8823	737.84	–
13020 kPa, x2 = 0.2111	672.46	–
13020 kPa, x2 = 0.4411	685.53	–
13020 kPa, x2 = 0.7301	713.71	–
14000 kPa, x2 = 0.1631	671.69	–
14000 kPa, x2 = 0.3158	678.66	–
14000 kPa, x2 = 0.4411	686.68	–
14000 kPa, x2 = 0.7301	714.83	–
14010 kPa, x2 = 0.1631	–	661.7
14010 kPa, x2 = 0.2111	673.57	663.23
14010 kPa, x2 = 0.3158	–	667.62
14010 kPa, x2 = 0.7301	–	702.82
14010 kPa, x2 = 0.8823	738.9	–
14020 kPa, x2 = 0.4411	–	675.08
14020 kPa, x2 = 0.8823	–	727.76
15000 kPa, x2 = 0.4411	687.73	–
15000 kPa, x2 = 0.8823	739.94	728.85
15010 kPa, x2 = 0.1631	672.77	662.89
15010 kPa, x2 = 0.4411	–	676.25
15010 kPa, x2 = 0.7301	–	704
15020 kPa, x2 = 0.2111	674.7	664.4
15020 kPa, x2 = 0.3158	679.74	668.79
15020 kPa, x2 = 0.7301	715.89	–
16000 kPa, x2 = 0.3158	–	669.98
16000 kPa, x2 = 0.8823	–	729.97
16010 kPa, x2 = 0.1631	673.82	–
16010 kPa, x2 = 0.2111	675.76	665.57
16010 kPa, x2 = 0.3158	680.86	–
16010 kPa, x2 = 0.7301	716.98	705.17
16010 kPa, x2 = 0.8823	740.94	–
16020 kPa, x2 = 0.1631	–	664
16020 kPa, x2 = 0.4411	688.85	677.45
17000 kPa, x2 = 0.1631	674.88	–
17000 kPa, x2 = 0.3158	681.92	–
17000 kPa, x2 = 0.4411	689.88	–
17000 kPa, x2 = 0.7301	–	706.32
17000 kPa, x2 = 0.8823	–	731.02
17010 kPa, x2 = 0.1631	–	665.15
17010 kPa, x2 = 0.3158	–	671.18
17010 kPa, x2 = 0.4411	–	678.56
17010 kPa, x2 = 0.7301	718.02	–
17020 kPa, x2 = 0.2111	676.83	666.77
17020 kPa, x2 = 0.8823	741.94	–
18000 kPa, x2 = 0.8823	–	732.11
18010 kPa, x2 = 0.1631	675.92	–
18010 kPa, x2 = 0.2111	677.86	–
18010 kPa, x2 = 0.3158	–	672.26
18010 kPa, x2 = 0.4411	690.94	679.72
18010 kPa, x2 = 0.7301	719.02	–
18010 kPa, x2 = 0.8823	742.92	–
18020 kPa, x2 = 0.1631	–	666.27
18020 kPa, x2 = 0.2111	–	667.86
18020 kPa, x2 = 0.3158	682.96	–
18020 kPa, x2 = 0.7301	–	707.41
19000 kPa, x2 = 0.1631	676.89	667.34
19000 kPa, x2 = 0.4411	–	680.79
19000 kPa, x2 = 0.8823	–	733.13
19010 kPa, x2 = 0.2111	678.87	668.92
19010 kPa, x2 = 0.3158	683.98	673.36
19010 kPa, x2 = 0.4411	691.96	–
19010 kPa, x2 = 0.7301	720.02	708.47
19010 kPa, x2 = 0.8823	743.88	–
20000 kPa, x2 = 0.7301	721.02	–
20000 kPa, x2 = 0.8823	744.83	–
20010 kPa, x2 = 0.1631	677.88	668.36
20010 kPa, x2 = 0.2111	–	669.97
20010 kPa, x2 = 0.3158	684.96	674.4
20010 kPa, x2 = 0.4411	692.97	–
20020 kPa, x2 = 0.2111	679.82	–
20020 kPa, x2 = 0.4411	–	681.9
20020 kPa, x2 = 0.7301	–	709.58
20020 kPa, x2 = 0.8823	–	734.15
